From patent publication US20120010135A1, “SPIRO DERIVATIVES FOR THE MODULATION OF STEAROYL-COA DESATURASE” (XENON PHARMACEUTICALS INC., priority 2009, published 2012) come the findings set out here.

Structures can show the parent of a compound that is named as a salt.

As usually defined, the IC50 is the concentration that inhibits the measured activity by half. Read a high IC50 as lower potency. A word on the melting point: it is the temperature, or range, at which the solid turns liquid.

Data set [1] addresses T1, stearoyl-CoA desaturase (SCD1) (Mus musculus, UniProt P13516).
T1 construct: Male ICR outbread mice, on a high-carbohydrate, low fat diet; from tissue; host or cells: liver microsomes of male ICR mice on a high-carbohydrate, low fat diet
T1 sequence (P13516 1-355): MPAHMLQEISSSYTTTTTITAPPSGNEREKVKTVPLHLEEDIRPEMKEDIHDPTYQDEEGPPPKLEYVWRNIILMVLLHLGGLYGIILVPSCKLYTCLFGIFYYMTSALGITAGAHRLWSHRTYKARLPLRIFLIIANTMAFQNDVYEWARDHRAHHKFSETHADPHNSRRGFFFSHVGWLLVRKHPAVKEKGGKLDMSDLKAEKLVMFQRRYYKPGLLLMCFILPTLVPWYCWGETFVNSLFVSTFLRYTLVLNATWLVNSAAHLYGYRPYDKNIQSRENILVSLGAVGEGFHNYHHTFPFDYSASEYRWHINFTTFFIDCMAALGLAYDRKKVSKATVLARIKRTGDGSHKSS
Briefly: SCD microsomal assay using mouse liver microsomes (release of 3H2O from [9,10-3H]stearoyl-CoA). Format: biochemical. The note with it: 15 min incubation, 25° C. From the text: The identification of compounds of the invention as SCD inhibitors was readily accomplished using the SCD enzyme and microsomal assay procedure described in Shanklin J. and Summerville C., Proc. Natl. Acad. Sci. USA (1991), Vol. 88, pp. 2510-2514.
Measuring Stearoyl-CoA Desaturase Inhibition Activity of a Test Compound Using Mouse Liver Microsomes
The identification of compounds of the invention as SCD inhibitors was readily accomplished using the SCD microsomal assay procedure described in Shanklin J. and Summerville C., Proc. Natl. Acad. Sci. USA (1991), Vol. 88, pp. 2510-2514.
Male ICR outbread mice, on a high-carbohydrate, low fat diet, under light halothane (15% in mineral oil) anesthesia are sacrificed by exsanguination during periods of high enzyme activity. Livers are immediately rinsed with cold 0.9% NaCl solution, weighed and minced with scissors. All procedures are performed at 4′C unless specified otherwise. Livers are homogenized in a solution (1/3 w/v) containing 025 M sucrose, 62 mM potassium phosphate buffer (pH 7.0), 0.15 M KCL 15 mM N-acetyleysteine, 5 mM MgCl2, and 0.1 mM EDTA using 4 strokes of a Potter-Elvehjem tissue homogenizer. The homogenate is centrifuged at 10,400×g for 20 min to eliminate mitochondria and cellular debris. The supernatant is filtered through a 3-layer cheesecloth and centrifuged at 105,000×g for 60 min. The microsomal pellet is gently resuspended in the same homogenization solution with a small glass/teflon homogenizer and stored at −70° C. The absence of mitochondrial contamination is enzymatically assessed. The protein concentration is measured using bovine serum albumin as the standard.
Desaturase activity is measured as the release of ^3H2O from [9,10-^3H]stearoyl-CoA. Reactions per assay point conditions are as follows: 2 μL 1.5 mM stearoyl-CoA, 0.25 μL 1 mCi/mL ^3H-stearoyl CoA, 10 μL 20 mM NADH, 36.75 μL 0.1 M PK buffer (K2HPO4/NaH2PO4, pH 7.2). The test compound or control solution is added in a 1 μL volume. Reactions are started by adding 50 μL of microsomes (1.25 mg/mL). The plates are mixed and after 15 min incubation on a heating block (25° C.), the reactions are stopped by the addition of 10 μL 60% PCA. An aliquot of 100 μL is then transferred to a fitter plate pretreated with charcoal and the plate centrifuged at 4000 rpm for 1 minute. The flow through containing the ^3H2O released by the SCD1 desaturation reaction is added to scintillation fluid and the radioactivity measured in a Packard TopCount. The data is analysed to identify the IC50 for test compounds and reference compounds.
The activity was defined in terms of % SCD enzyme activity remaining at the desired concentration of the test compound or as the IC50 concentration. The IC50 (affinity) of the example compounds toward the stearoyl-CoA desaturase is comprised between around […] and 0.0001 μM or between around […] 0.0001 μM or between around 1 μM and 0.0001 μM.

The molecule `CNC(=O)c1ccnc(NC(=O)N2CCC3(CC2)CC(=O)c2ccc(F)cc2O3)c1` [Example 1, 7-fluoro-N-(4-(methylcarbamoyl)pyridin-2-yl)-4-oxospiro[chroman-2,4′-piperidine]-1′-carboxamide hydrochloride] returned an IC50 in data set [1] of 524 nM. This counts as sub-micromolar.

`CNC(=O)c1ccnc(NC(=O)N2CCC3(CCc4ccc(F)cc4O3)CC2)c1` [Example 1.1, 7-fluoro-N-(4-(methylcarbamoyl)pyridin-2-yl)spiro[chroman-2,4′-piperidine]-1′-carboxamide] displayed a melting point of 177 to 179 °C. In addition, the IC50 in data set [1] is 17 nM.

Consider `CNC(=O)c1ccnc(NC(=O)N2CCC3(CCc4cccc(Cl)c4O3)CC2)c1` [Example 1.2, 8-chloro-N-(4-(methylcarbamoyl)pyridin-2-yl)spiro[chroman-2,4′-piperidine]-1′-carboxamide hydrochloride], for which the IC50 in data set [1] came to 3 nM. Turning to `CNC(=O)c1ccnc(NC(=O)N2CCC3(CC2)CC(=O)c2cccc(Cl)c2O3)c1.Cl` [Example 1.3, 8-chloro-N-(4-(methylcarbamoyl)pyridin-2-yl)-4-oxospiro[chroman-2,4′-piperidine]-1′-carboxamide hydrochloride], the melting point was 215 °C (dec.). 56 nM corresponded to half-maximal inhibition in data set [1] (IC50). The molecule `CNC(=O)c1ccnc(NC(=O)N2CCC3(CCc4cc(F)ccc4O3)CC2)c1` [Example 1.4, 6-fluoro-N-(4-(methylcarbamoyl)pyridin-2-yl)spiro[chroman-2,4′-piperidine]-1′-carboxamide] registered a melting point of 175 to 176 °C. In the case of `CNC(=O)c1cccc(NC(=O)N2CCC3(CCc4ccc(F)cc4O3)CC2)n1` [Example 1.5, 7-fluoro-N-(6-(methylcarbamoyl)pyridin-2-yl)spiro[chroman-2,4′-piperidine]-it-carboxamide], the melting point was 126 to 128 °C. Same read-out and setting: under `CNC(=O)c1cncc(NC(=O)N2CCC3(CCc4ccc(F)cc4O3)CC2)c1` [Example 1.6, 7-fluoro-N-(5-(methylcarbamoyl)pyridin-3-yl)spiro[chroman-2,4′-piperidine]-1′-carboxamide] stands 231 to 233 °C. Regarding `CNC(=O)c1ccnc(NC(=O)N2CCC3(CC2)Cc2ccccc2C3)c1` [Example 1.7, N-(4-(methylcarbamoyl)pyridin-2-yl)-1,3-dihydrospiro[indene-2,4′-piperidine]-1′-carboxamide], the melting point was 229 to 231 °C.

Molecule `Cn1cc(CNC(=O)c2ccnc(NC(=O)N3CCC4(CCc5cc(F)ccc5O4)CC3)c2)cn1` [Example 2.1, 6-fluoro-N-(4-{[(1-methyl-1H-pyrazol-4-yl)methyl]carbamoyl}pyridin-2-yl)-3,4-dihydro-1′H-spiro[chromene-2,4′-piperidine]-1′-carboxamide hydrochloride] yielded an IC50 in data set [1] of 40 nM. This lies in the double-digit nanomolar range. Turning to `NC(=O)c1ccnc(NC(=O)N2CCC3(CCc4cc(F)ccc4O3)CC2)c1` [Example 3, N-(4-carbamoylpyridin-2-yl)-6-fluorospiro[chroman-2,4′-piperidine]-1′-carboxamide], the melting point was in the range of 265 to 267 °C.

Consider `Cc1nc(NC(=O)N2CCC3(CCc4ccc(F)cc4O3)CC2)sc1C(=O)NCc1ccccn1` [Example 4, 7-fluoro-N-(4-methyl-5-(pyridin-2-ylmethylcarbamoyl)thiazol-2-yl)spiro[chroman-2,4′-piperidine]-1′-carboxamide], for which the melting point was in the range of 165 to 167 °C. The IC50 in data set [1] amounted to 48 nM.
